The source made the active and inactive calls.
Key:
Mus musculus [1] = assay: Compound was evaluated for antidepressant activity measured by tetrabenazine (TBZ) induced exploratory activity in mice after 30 mg/kg intraperitoneal administration; assay type: functional; details: ip
Mus musculus [2] = assay: Compound was evaluated for antidepressant activity measured by tetrabenazine (TBZ) induced ptosis in mice after 30 mg/kg intraperitoneal administration; assay type: functional; details: ip
Mus musculus [3] = assay: Antidepressant activity measured by maximal electroshock seizure threshold (MEST) assay in TBZ treated mice after ip administration; assay type: functional
[4] = Compound was evaluated for 50% lethal dose in mice; LD50 range 100-300 mg/kg; assay type: ADME, organism-based; details: mouse, in vivo
Mus musculus [5] = assay: Antidepressant activity measured by tetrabenazine (TBZ) induced ptosis in mice after intraperitoneal administration; assay type: functional; details: ip
Mus musculus [6] = assay: Antidepressant activity measured by maximal electroshock seizure threshold (MEST) assay in untreated mice after ip administration; assay type: functional
Mus musculus [7] = assay: Compound was evaluated for antidepressant activity measured by tetrabenazine (TBZ) induced ptosis in mice after intraperitoneal administration; Lethal at 60 Mg/kg; assay type: functional; details: ip
Mus musculus [8] = assay: Compound was evaluated for antidepressant activity measured by tetrabenazine (TBZ) induced exploratory activity in mice after 60 mg/kg intraperitoneal administration; Inactive; assay type: functional, organism-based; design: dose 60 mg/kg
Mus musculus [9] = assay: Compound was evaluated for antidepressant activity measured by tetrabenazine (TBZ) induced ptosis in mice after 30 mg/kg intraperitoneal administration; inactive; assay type: functional, organism-based; design: dose 30 mg/kg
Mus musculus [10] = assay: Compound was evaluated for antidepressant activity measured by tetrabenazine (TBZ) induced exploratory activity in mice after 30 mg/kg intraperitoneal administration; inactive; assay type: functional, organism-based; design: dose 30 mg/kg
Mus musculus [11] = assay: Compound was evaluated for antidepressant activity measured by tetrabenazine (TBZ) induced exploratory activity in mice after 60 mg/kg intraperitoneal administration; inactive; assay type: functional, organism-based; design: dose 60 mg/kg
Mus musculus [12] = assay: Compound was evaluated for antidepressant activity measured by tetrabenazine (TBZ) induced ptosis in mice after 60 mg/kg intraperitoneal administration; inactive; assay type: functional, organism-based; design: dose 60 mg/kg
Mus musculus [13] = organism: Mus musculus; assay: Antidepressant activity measured by effects on […] (TBZ) inhibited exploratory activity.; assay type: functional
[14] = Compound was evaluated for 50% lethal dose in mice; LD50 range is 30-100; assay type: ADME, organism-based; details: mouse, in vivo
Mus musculus [15] = assay: Compound was evaluated for antidepressant activity measured by tetrabenazine (TBZ) induced exploratory activity in mice after 30 mg/kg intraperitoneal administration; Inactive; assay type: functional, organism-based; design: dose 30 mg/kg
Mus musculus [16] = assay: Compound was evaluated for antidepressant activity measured by tetrabenazine (TBZ) induced ptosis in mice after 10 mg/kg intraperitoneal administration; Inactive; assay type: functional, organism-based; design: dose 10 mg/kg
[17] = Compound was evaluated for 50% lethal dose in mice; LD50 range 300-1000 mg/kg; assay type: ADME, organism-based; details: mouse, in vivo
[18] = Compound was evaluated for 50% lethal dose in mice; LD50 range is 100-300; assay type: ADME, organism-based; details: mouse, in vivo
Mus musculus [19] = assay: dl form was evaluated for antidepressant activity measured by tetrabenazine (TBZ) induced exploratory activity in mice after intraperitoneal administration; assay type: functional; details: ip
Mus musculus [20] = assay: Meso form was evaluated for antidepressant activity measured by tetrabenazine (TBZ) induced exploratory activity in mice after intraperitoneal administration; assay type: functional; details: ip
Mus musculus [21] = assay: Meso form was evaluated for antidepressant activity measured by tetrabenazine (TBZ) induced ptosis in mice after intraperitoneal administration (Two diastereomers (7/6) were present); assay type: functional; details: ip
Mus musculus [22] = assay: dl form was evaluated for antidepressant activity measured by tetrabenazine (TBZ) induced ptosis in mice after intraperitoneal administration; assay type: functional; details: ip
Mus musculus [23] = assay: Compound was evaluated for antidepressant activity measured by tetrabenazine (TBZ) induced ptosis in mice after 30 mg/kg intraperitoneal administration; Inactive; assay type: functional, organism-based; design: dose 30 mg/kg
[24] = Compound was evaluated for 50% lethal dose in mice; LD50 range 30-100 mg/kg; assay type: ADME, organism-based; details: mouse, in vivo

Structure (SMILES)	ED50 (Mus musculus [3])	ED50 (Mus musculus [5])	ED50 (Mus musculus [6])	ED50 (Mus musculus [13])	other results
CNCC(c1ccc(Cl)cc1)c1ccc(Cl)cc1					ED50 (Mus musculus [1]): 14 mg/kg; ED50 (Mus musculus [2]): 13 mg/kg
OCCN(CCO)CC(c1ccccc1)c1ccccc1	15.4 mg/kg	2 mg/kg	20.3 mg/kg		LD50 [4]: 300 mg/kg
COc1ccc(C(CN)c2ccc(OC)cc2)cc1					ED50 (Mus musculus [7]): > 10 mg/kg; ED50 (Mus musculus [8]): inactive
OCCN(CCO)CC(c1cccs1)c1cccs1					ED50 (Mus musculus [9]): inactive; ED50 (Mus musculus [10]): inactive
COc1ccc(C(CN(CCO)CCO)c2ccc(OC)c(OC)c2)cc1OC					ED50 (Mus musculus [11]): inactive; ED50 (Mus musculus [12]): inactive
CN(C)CCCN1c2ccccc2CCc2ccccc21 [IMIPRAMINE]	14.9 mg/kg	0.9 mg/kg	20.3 mg/kg	1.3 mg/kg	
COc1ccc(C(CN(CCO)CCO)c2ccccc2)cc1OC (configuration not stated)					ED50 (Mus musculus [11]): inactive; ED50 (Mus musculus [12]): inactive
NCC(c1ccccc1)c1ccccc1	> 15 mg/kg	1.7 mg/kg	10 mg/kg	1.8 mg/kg	LD50 [14]: 30 mg/kg
CNCC(c1ccccc1)c1ccc(OC)c(OC)c1 (configuration not stated)		11 mg/kg		> 30 mg/kg	
COc1ccc(C(CN)c2ccc(OC)c(OC)c2)cc1OC					ED50 (Mus musculus [11]): inactive; ED50 (Mus musculus [12]): inactive
CCN(CCO)CCC(c1ccccc1)c1ccccc1	21.4 mg/kg	1.9 mg/kg	> 25 mg/kg	10 mg/kg	LD50 [4]: 300 mg/kg
COc1ccc(C(CN(CCO)CCO)c2ccc(OC)cc2)cc1					ED50 (Mus musculus [11]): inactive; ED50 (Mus musculus [12]): inactive
COc1ccc(C(CN(C)C)c2ccccc2)cc1OC (configuration not stated)		14 mg/kg			ED50 (Mus musculus [10]): inactive
OCCN(CCO)CC(O)(c1ccccc1)c1ccccc1		8 mg/kg		80 mg/kg	
NCC(F)(c1ccccc1)c1ccccc1					ED50 (Mus musculus [15]): inactive; ED50 (Mus musculus [16]): inactive
OCCN(CCO)CCC(c1ccccc1)c1ccccc1		20 mg/kg		24 mg/kg	
COc1ccc(C(CN)c2ccccc2)cc1OC (configuration not stated)					ED50 (Mus musculus [9]): inactive; ED50 (Mus musculus [10]): inactive
OCCN(CCO)CCc1ccccc1	> 50 mg/kg	12 mg/kg	> 50 mg/kg	17 mg/kg	LD50 [17]: 1000 mg/kg
c1ccc2c(c1)cc1n2CCCNC1 [AZEPINDOLE]	32 mg/kg	9 mg/kg	46 mg/kg	11 mg/kg	LD50 [18]: 100 mg/kg
CC(=O)OCCN(CCOC(C)=O)CC(c1ccccc1)c1ccccc1		13 mg/kg		23 mg/kg	
CNCC(c1ccccc1)c1ccccc1	9 mg/kg	2.3 mg/kg	8.2 mg/kg	5 mg/kg	LD50 [14]: 30 mg/kg
CC(O)CN(CC(C)O)CC(c1ccccc1)c1ccccc1 (configuration not stated)					ED50 (Mus musculus [19]): 11 mg/kg; ED50 (Mus musculus [20]): 18 mg/kg; ED50 (Mus musculus [21]): 7 mg/kg; ED50 (Mus musculus [22]): 6 mg/kg
CC(N)C(c1ccccc1)c1ccccc1 (configuration not stated)		3.8 mg/kg		3.5 mg/kg	
NCC(c1ccc(Cl)cc1)c1ccc(Cl)cc1					ED50 (Mus musculus [15]): inactive; ED50 (Mus musculus [23]): inactive
OCCN(CCO)CC(c1ccccc1)C1CCCCC1 (configuration not stated)		22 mg/kg		~50 mg/kg	
CCNCCC(c1ccccc1)c1ccccc1		23 mg/kg		15 mg/kg	
OCCN(CCO)C(Cc1ccccc1)c1ccccc1 (configuration not stated)					ED50 (Mus musculus [9]): inactive; ED50 (Mus musculus [10]): inactive
CN(C)CC(c1ccccc1)c1ccccc1	3 mg/kg	2.5 mg/kg	7 mg/kg	9 mg/kg	LD50 [14]: 100 mg/kg
CN(C)CC(c1ccc(Cl)cc1)c1ccc(Cl)cc1		16 mg/kg		11 mg/kg	
NCC(O)(c1ccccc1)c1ccccc1	9.9 mg/kg	6 mg/kg	8.1 mg/kg	9 mg/kg	LD50 [24]: 100 mg/kg
